Structures can show the parent of a compound that is named as a salt.
Legend:
[1] = Evaluation of hygroscopicity: water content (K.F.) after exposure to humid conditions; assay type: physicochemical; settings: for change in water content under humid conditions: 75% and 90% RH, up to 1 week
Description: Then, the water content (K.F. water %) of the samples was measured.

[2] = Stability on stringent 60° C. heat treatment (HPLC content); settings: for chemical stability at high temperature: 60° C. heat treatment
Description: The inorganic acid salts of sibutramine, prepared in Examples 1, 2 and 3, and sibutramine hydrochloride monohydrate were exposed to a stringent 60° C. heat treatment.
HPLC was performed under the following conditions. Wavelength of UV detection: 225 nm
Column: octadecyl silica gel, C18 (4.6×150 mm, 5 μm)

[3] = Light stability test, fluorescent light at 25° C., ICH chamber (HPLC content); assay type: physicochemical
Description: A light stability test was performed as follows.

[4] = Evaluation of solubility in solutions having various pH values
From the text: In Table 8, the solubility is expressed as milligrams (mg) of sibutramine dissolved per milliliter (ml) of solution.

[5] = 75% relative humidity, 25 °C, 1 week
[6] = 75% relative humidity, 25 °C, 3 days
[7] = 90% relative humidity, 25 °C, 1 week
[8] = 90% relative humidity, 25 °C, 3 days
[9] = fluorescent light, 25° C., 1 wk
[10] = fluorescent light, 25° C., 2 wks
[11] = fluorescent light, 25° C., 4 wks

CC(C)CC(N(C)C)C1(c2ccc(Cl)cc2)CCC1 (stereo not shown) [Sibutramine HCl hydrate, sibutramine hydrochloride monohydrate, reference compound]
change in water content under humid conditions [1]: almost no change in water content
water content (K.F. water %) [1, 5]: 5.5%
water content (K.F. water %) [1, 6]: 5.49%
water content (K.F. water %) [1, 7]: 5.49%
water content (K.F. water %) [1, 8]: 5.5%
water content (K.F. water %) ([1]; Initial): 5.5%
chemical stability at high temperature [2]: good chemical stability
content (HPLC) on 60° C. heat treatment ([2]; 60° C., 1 wk): 1.000
content (HPLC) on 60° C. heat treatment ([2]; 60° C., 2 wks): 0.999
content (HPLC) on 60° C. heat treatment ([2]; 60° C., 4 wks): 0.999
content (HPLC) on 60° C. heat treatment ([2]; Initial): 1.000
content (HPLC) on exposure to fluorescent light ([3]; Initial): 1.000
content (HPLC) on exposure to fluorescent light [3, 9]: 1.000
content (HPLC) on exposure to fluorescent light [3, 10]: 0.999
content (HPLC) on exposure to fluorescent light [3, 11]: 0.999
light stability ([3]; fluorescent light, 25° C., content by HPLC): good light stability

sibutramine bromate
change in water content under humid conditions [1]: almost no change in water content
water content (K.F. water %) [1, 5]: 0.09%
water content (K.F. water %) [1, 6]: 0.09%
water content (K.F. water %) [1, 7]: 0.08%
water content (K.F. water %) [1, 8]: 0.08%
water content (K.F. water %) ([1]; Initial): 0.09%
solubility (mg of sibutramine dissolved per ml of solution) ([4]; DW (distilled water), dissolved at 37° C.): 12.78 mg/mL
solubility (mg of sibutramine dissolved per ml of solution) ([4]; pH 1.2, dissolved at 37° C.): 12.43 mg/mL
solubility (mg of sibutramine dissolved per ml of solution) ([4]; pH 4.0, dissolved at 37° C.): 3.64 mg/mL
solubility (mg of sibutramine dissolved per ml of solution) ([4]; pH 5.3, dissolved at 37° C.): 8.96 mg/mL
solubility (mg of sibutramine dissolved per ml of solution) ([4]; pH 6.8, dissolved at 37° C.): 11.08 mg/mL
solubility (mg of sibutramine dissolved per ml of solution) ([4]; pH 7.4, dissolved at 37° C.): 12.41 mg/mL
chemical stability at high temperature [2]: good chemical stability
content (HPLC) on 60° C. heat treatment ([2]; 60° C., 1 wk): 0.999
content (HPLC) on 60° C. heat treatment ([2]; 60° C., 2 wks): 1.000
content (HPLC) on 60° C. heat treatment ([2]; 60° C., 4 wks): 0.999
content (HPLC) on 60° C. heat treatment ([2]; Initial): 1.000
content (HPLC) on exposure to fluorescent light ([3]; Initial): 1.000
content (HPLC) on exposure to fluorescent light [3, 9]: 1.000
content (HPLC) on exposure to fluorescent light [3, 10]: 0.999
content (HPLC) on exposure to fluorescent light [3, 11]: 0.999

sibutramine hydrogen sulfate
change in water content under humid conditions [1]: almost no change in water content
water content (K.F. water %) [1, 5]: 0.01%
water content (K.F. water %) [1, 6]: 0.02%
water content (K.F. water %) [1, 7]: 0.03%
water content (K.F. water %) [1, 8]: 0.03%
water content (K.F. water %) ([1]; Initial): 0.02%
chemical stability at high temperature [2]: good chemical stability
content (HPLC) on 60° C. heat treatment ([2]; 60° C., 1 wk): 1.000
content (HPLC) on 60° C. heat treatment ([2]; 60° C., 2 wks): 0.999
content (HPLC) on 60° C. heat treatment ([2]; 60° C., 4 wks): 0.999
content (HPLC) on 60° C. heat treatment ([2]; Initial): 1.000
content (HPLC) on exposure to fluorescent light ([3]; Initial): 1.000
content (HPLC) on exposure to fluorescent light [3, 9]: 1.000
content (HPLC) on exposure to fluorescent light [3, 10]: 1.000
content (HPLC) on exposure to fluorescent light [3, 11]: 0.999

sibutramine phosphate monohydrate [Sibutramine phosphate hydrate]
change in water content under humid conditions [1]: almost no change in water content
water content (K.F. water %) [1, 5]: 4.25%
water content (K.F. water %) [1, 6]: 4.24%
water content (K.F. water %) [1, 7]: 4.26%
water content (K.F. water %) [1, 8]: 4.25%
water content (K.F. water %) ([1]; Initial): 4.25%
chemical stability at high temperature [2]: good chemical stability
content (HPLC) on 60° C. heat treatment ([2]; 60° C., 1 wk): 1.000
content (HPLC) on 60° C. heat treatment ([2]; 60° C., 2 wks): 0.999
content (HPLC) on 60° C. heat treatment ([2]; 60° C., 4 wks): 1.000
content (HPLC) on 60° C. heat treatment ([2]; Initial): 1.000
content (HPLC) on exposure to fluorescent light ([3]; Initial): 1.000
content (HPLC) on exposure to fluorescent light [3, 9]: 1.000
content (HPLC) on exposure to fluorescent light [3, 10]: 0.999
content (HPLC) on exposure to fluorescent light [3, 11]: 0.999
